Assay results: ChEMBL document CHEMBL3352541, “1-Phenylsulfinyl-3-(pyridin-3-yl)naphthalen-2-ols: a new class of potent and selective aldosterone synthase inhibitors” (Eur J Med Chem, 2015)

How the values were obtained:
[1] = biological target: T1, Cytochrome P450 11B2, mitochondrial (Homo sapiens, UniProt P19099); format: cell-based; details: V79MZ, 1 h
T1 sequence (P19099 whole entry): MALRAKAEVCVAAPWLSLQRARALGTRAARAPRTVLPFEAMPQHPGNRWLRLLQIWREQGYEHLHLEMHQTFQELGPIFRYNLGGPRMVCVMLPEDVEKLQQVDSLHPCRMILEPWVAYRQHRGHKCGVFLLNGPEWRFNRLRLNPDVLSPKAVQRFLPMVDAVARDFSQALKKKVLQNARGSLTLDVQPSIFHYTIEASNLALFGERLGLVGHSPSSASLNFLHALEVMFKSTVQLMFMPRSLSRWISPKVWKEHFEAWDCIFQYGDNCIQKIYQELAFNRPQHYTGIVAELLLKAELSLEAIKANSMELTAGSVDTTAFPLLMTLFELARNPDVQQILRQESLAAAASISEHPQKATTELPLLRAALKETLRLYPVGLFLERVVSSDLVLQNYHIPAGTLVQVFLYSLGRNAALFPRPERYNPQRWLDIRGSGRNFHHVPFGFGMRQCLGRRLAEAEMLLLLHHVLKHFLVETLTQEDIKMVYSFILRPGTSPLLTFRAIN

V79MZ = assay: Selectivity ratio of IC50 for human CYP11B1 expressed in hamster V79MZ cells to IC50 for human CYP11B2 expressed in hamster V79MZ cells; format: cell-based
CYP17 = biological target: T2, CYP17 (Homo sapiens, UniProt P05093); assay: Inhibition of human recombinant CYP17 expressed in Escherichia coli using progesterone as substrate at 2 uM; details: probe progesterone
T2 sequence (P05093 whole entry): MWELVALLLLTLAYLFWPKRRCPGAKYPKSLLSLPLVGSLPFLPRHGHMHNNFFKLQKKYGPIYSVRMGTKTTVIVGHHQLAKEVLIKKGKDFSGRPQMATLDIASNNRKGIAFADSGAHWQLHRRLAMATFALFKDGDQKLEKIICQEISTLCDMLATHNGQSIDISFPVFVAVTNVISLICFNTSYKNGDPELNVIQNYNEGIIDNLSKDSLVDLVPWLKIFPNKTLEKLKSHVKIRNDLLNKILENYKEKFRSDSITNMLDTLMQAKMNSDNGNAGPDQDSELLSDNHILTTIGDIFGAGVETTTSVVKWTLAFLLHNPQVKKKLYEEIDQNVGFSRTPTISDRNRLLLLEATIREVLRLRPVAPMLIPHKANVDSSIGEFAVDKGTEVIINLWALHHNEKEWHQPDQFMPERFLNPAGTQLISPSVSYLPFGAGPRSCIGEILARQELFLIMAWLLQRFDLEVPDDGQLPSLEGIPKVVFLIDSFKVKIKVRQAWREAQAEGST

CYP19 (aromatase) = biological target: T3, CYP19 (aromatase) (Homo sapiens, UniProt P11511); assay: Inhibition of human recombinant CYP19 using [1beta3H]androstenedione as substrate at 500 nM; details: recombinant human CYP19, probe [1beta3H]androstenedione
T3 sequence (P11511 whole entry): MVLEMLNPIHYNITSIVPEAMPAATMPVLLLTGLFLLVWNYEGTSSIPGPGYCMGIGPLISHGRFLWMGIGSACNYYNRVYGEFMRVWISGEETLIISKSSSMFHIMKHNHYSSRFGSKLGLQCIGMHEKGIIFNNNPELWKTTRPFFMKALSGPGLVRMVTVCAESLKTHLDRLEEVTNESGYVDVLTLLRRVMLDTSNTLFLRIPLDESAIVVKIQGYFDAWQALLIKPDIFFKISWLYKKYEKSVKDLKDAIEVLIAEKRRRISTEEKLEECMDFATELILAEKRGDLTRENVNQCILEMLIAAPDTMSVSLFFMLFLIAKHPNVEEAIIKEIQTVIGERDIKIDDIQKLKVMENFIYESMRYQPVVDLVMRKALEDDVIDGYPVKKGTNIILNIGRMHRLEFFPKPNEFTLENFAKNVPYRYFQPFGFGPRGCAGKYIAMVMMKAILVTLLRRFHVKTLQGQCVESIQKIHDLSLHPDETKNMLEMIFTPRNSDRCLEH

[2] = biological target: T1, Cytochrome P450 11B2, mitochondrial
Description: Inhibition of human CYP11B2 expressed in hamster V79MZ cells using [3H]-11-deoxycorticosterone as substrate after 1 hr by HPLC analysis

[3] = biological target: T4, Cytochrome P450 11B1, mitochondrial (Homo sapiens, UniProt P15538)
T4 sequence (P15538 whole entry): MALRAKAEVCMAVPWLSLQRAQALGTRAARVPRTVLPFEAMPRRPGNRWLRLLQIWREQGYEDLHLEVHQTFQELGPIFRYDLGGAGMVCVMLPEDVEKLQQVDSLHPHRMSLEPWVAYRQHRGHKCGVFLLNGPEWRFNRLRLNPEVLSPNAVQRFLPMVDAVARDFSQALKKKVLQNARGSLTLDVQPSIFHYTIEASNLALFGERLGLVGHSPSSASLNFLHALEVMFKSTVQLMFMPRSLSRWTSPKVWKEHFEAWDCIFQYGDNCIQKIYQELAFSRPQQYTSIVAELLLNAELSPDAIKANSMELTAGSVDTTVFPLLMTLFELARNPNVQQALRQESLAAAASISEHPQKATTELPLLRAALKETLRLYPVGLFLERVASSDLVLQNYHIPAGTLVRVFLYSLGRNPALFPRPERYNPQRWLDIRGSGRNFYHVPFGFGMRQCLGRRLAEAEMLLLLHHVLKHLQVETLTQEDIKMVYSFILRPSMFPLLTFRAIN
Description: Inhibition of human CYP11B1 expressed in hamster V79MZ cells using [3H]-11-deoxycorticosterone as substrate after 1 hr by HPLC analysis

Work on `[O-][S+](c1ccc(Cl)cc1)c1c(O)c(-c2cccnc2)cc2ccccc12` (centres undefined) yielded an inhibition [1] of 84%, a Ratio IC50 (V79MZ) of 407 and an inhibition at 2 µM (CYP17) of under 5%. For the same compound, the inhibition at 0.5 µM (CYP19 (aromatase)) was under 5%, the IC50 [2] was 22 nM and the IC50 [3] was 8950 nM.
In the case of `[O-][S+](c1ccccc1Cl)c1c(O)c(-c2cccnc2)cc2ccccc12` (centres undefined), the inhibition [1] is reported as 90%, the Ratio IC50 (V79MZ) is reported as 204 and the inhibition at 2 µM (CYP17) is reported as under 5%. For the same compound, the inhibition at 0.5 µM (CYP19 (aromatase)) was under 5%, the IC50 [2] was 22 nM and the IC50 [3] was 4490 nM.
In the case of `COc1ccccc1[S+]([O-])c1c(O)c(-c2cccnc2)cc2ccccc12` (centres undefined), the inhibition [1] is reported as 86%, the Ratio IC50 (V79MZ) is reported as 17 and the inhibition at 2 µM (CYP17) is reported as under 5%. For the same compound, the inhibition at 0.5 µM (CYP19 (aromatase)) was under 5%, the IC50 [2] was 64 nM and the IC50 [3] was 1100 nM.
`COc1cccc([S+]([O-])c2c(O)c(-c3cccnc3)cc3ccccc23)c1` (centres undefined) gave an inhibition [1] of 87%, a Ratio IC50 (V79MZ) of 271 and an inhibition at 2 µM (CYP17) of under 5%. For the same compound, the inhibition at 0.5 µM (CYP19 (aromatase)) was under 5%, the IC50 [2] was 27 nM and the IC50 [3] was 7310 nM.
`[O-][S+](c1cc(Cl)cc(Cl)c1)c1c(O)c(-c2cccnc2)cc2ccccc12` (centres undefined) gave an inhibition [1] of 87%, a Ratio IC50 (V79MZ) of 100 and an inhibition at 2 µM (CYP17) of under 5%. For the same compound, the inhibition at 0.5 µM (CYP19 (aromatase)) was under 5%, the IC50 [2] was 47 nM and the IC50 [3] was 4720 nM.
`COc1ccccc1Sc1c(O)c(-c2cccnc2)cc2ccccc12` was tested, and the inhibition [1] was 18%.
Work on `[O-][S+](c1ccc(Cl)c(Cl)c1)c1c(O)c(-c2cccnc2)cc2ccccc12` (centres undefined) yielded an inhibition [1] of 90%, a Ratio IC50 (V79MZ) of 253 and an inhibition at 2 µM (CYP17) of under 5%. It also gave an inhibition at 0.5 µM (CYP19 (aromatase)) of under 5%, an IC50 [2] of 33 nM and an IC50 [3] of 8330 nM.
`[O-][S+](c1ccccc1OC(F)(F)F)c1c(O)c(-c2cccnc2)cc2ccccc12` (centres undefined) showed an inhibition [1] of 77%, a Ratio IC50 (V79MZ) of 84 and an inhibition at 2 µM (CYP17) of under 5%. For the same compound, the inhibition at 0.5 µM (CYP19 (aromatase)) was under 5%, the IC50 [2] was 56 nM and the IC50 [3] was 4710 nM.
For `c1ccc(Sc2cc(-c3cccnc3)cc3ccccc23)cc1`, the inhibition [1] was 15%.
With `O=S(=O)(c1ccccc1)c1cc2ccccc2cc1-c1cccnc1` the inhibition [1] was 16%.
`[O-][S+](c1cccc(F)c1)c1c(O)c(-c2cccnc2)cc2ccccc12` (centres undefined) gave an inhibition [1] of 85%, a Ratio IC50 (V79MZ) of 168 and an inhibition at 2 µM (CYP17) of under 5%. For the same compound, the inhibition at 0.5 µM (CYP19 (aromatase)) was under 5%, the IC50 [2] was 39 nM and the IC50 [3] was 6550 nM.
In the case of `[O-][S+](c1cc(C(F)(F)F)cc(C(F)(F)F)c1)c1c(O)c(-c2cccnc2)cc2ccccc12` (centres undefined), the inhibition [1] is reported as 78%, the Ratio IC50 (V79MZ) is reported as 283 and the inhibition at 2 µM (CYP17) is reported as under 5%. It also gave an inhibition at 0.5 µM (CYP19 (aromatase)) of under 5%, an IC50 [2] of 33 nM and an IC50 [3] of 9350 nM.
For `COc1cccc(Sc2c(O)c(-c3cccnc3)cc3ccccc23)c1`, the inhibition [1] was 20%.
For `N#Cc1ccc([S+]([O-])c2c(O)c(-c3cccnc3)cc3ccccc23)cc1` (centres undefined), the inhibition [1] was 47%.
